Measurements from patent US20060094783A1 (Tava Pharmaceutical Industries, Ltd., priority 1990, published 2006).
“And” between values parts separate entries of the source, which are not always exact repeats. Identical values can stand only once. Counter-ions that a name gives are not always drawn. Like-named read-outs stand apart in the source and are kept apart here.

Tests used:
[1] = test system: maximal electroshock seizures in mice; assay: Maximal electroshock test (MES test) in mice; format: in vivo, mouse; details: 100 mg/kg
From the text: The MES test is a classical model to indicate efficacy for partial and generalized seizures in humans. The agents' mechanism of action is via their ability to prevent the spread of seizures. Some agents, however, that prevent seizure spread have the side effect of lowering seizure threshold. These agents therefore have both proconvulsive and anticonvulsive side effects.

[2] = test system: Metrazol seizure threshold in mice; assay: Timed Intravenous Infusion of Metrazol test; format: in vivo, mouse; details: 141 mg/kg
Procedure: Timed Intravenous Infusion of Metrazol Test. This test measures the minimal seizure threshold of each animal. Metrazol is infused at 0.185 mg/ml into the tail veins of mice.

[3] = test system: amphetamine-induced stereotype behavior in senescent rats; assay: Amphetamine-induced stereotype behavior in senescent rats; format: in vivo, rat; details: control senescent rats, 0.5 mg/kg/day in drinking water, amphetamine 0.5 mg/kg s.c.
Procedure: 45 minutes later, lateral head movements were counted.

[4] = test system: anoxia-induced hyperactive syndrome in juvenile rats; assay: Anoxia-induced hyperactive syndrome in juvenile rats; format: in vivo, rat; details: 0.5 mg/kg/day to nursing mother
Procedure: Anoxia was performed on rat pups on the first post-natal day. They were placed in a glass chamber and exposed to 100% nitrogen for 25 minutes. They were resuscitated by intermittent massage softly applied to the chest and then returned to their respective mothers. Control rats received the same treatment but with air instead of nitrogen.
Locomotion was measured in 6 fully computerized cages (28×28 cm) by recording the number of crossings over a given period of time. Crossings of grid infrared beams at 4-cm intervals initiated electrical impulses which fed a counter. Recordings of motor activity were made at the ages of 15 and 20 days, over a period of 15 minutes.

[5] = test system: MPTP-induced striatal DA and DOPAC depletions in mice; assay: Suppression of MPTP-induced dopaminergic toxicity (striatal DA and DOPAC); format: in vivo, mouse; details: PAI […] i.p., deprenyl 5 mg/kg i.p., 5 days
[6] = test system: passive avoidance response in young rats; assay: Passive avoidance test in young rats (memory); format: in vivo, rat; details: Protocol B (0.5 mg/kg/day), anoxia-lesioned rats
From the text: The effect of R(+)-PAI and S(−)-PAI on the improvement or restoration of memory was investigated in the passive avoidance test. If the drug is effective, it increases the latency of response to enter a dark compartment or chamber where an electroshock has been experienced earlier by the rat being tested. The latency of the maximal response is 300 seconds.

MCA-occluded Wistar rats [7] = test system: MCA-occluded Wistar rats
Procedure: (§1) Middle cerebral artery occlusion (MCAO) in the rat. […] Male Wistar rats (Olac England-Jerusalem) 300-400 g each were anesthetized with a solution of Equitesine administered i.p. at a dose of 3 mL/kg. Equitesine consists of 13.5 mL sodium pentothal solution (60 mg/mL), 3.5 g chloral hydrate, 1.75 g MgSO4, 33 mL propylene glycol, 8.3 mL absolute alcohol made up to 83 mL with distilled water. […] In order to expose the left middle cerebral artery, a cut was made in the temporal muscle. The tip of the coronoid process of mandible was excised as well and removed with a fine rongeur. Craniectomy was made with a dental drill at the junction between the median wall and the roof of the inferotemporal fossa. The dura matter was opened carefully using a 27 gauge needle. The MCA was permanently occluded by microbipolar coagulation at low power setting, beginning 2-3 mm medial to the olfactory tract between its cortical branch to the rhinal cortex and the laterate striate arteries.
After coagulation, the MCA was severed with microscissors and divided to ensure complete occlusion. Following this, the temporalis muscle was sutured and laid over the craniectomy site. The skin was closed with a running 3-0 silk suture. A shad craniectomy operation was performed on a parallel group of rats, but without cauterization of the MCA. […] The volume of brain tissue incurring damage following ischemia was determined. […]

[8] = test system: haloperidol-induced catalepsy in mice; assay: Reversal of haloperidol-induced catalepsy in mice; format: in vivo, mouse; details: peak effect at 7.5-10 mg/kg, 3 hours after haloperidol
Procedure: All drugs were administered i.p. in a volume of 0.2 mL. Two hours later, haloperidol was injected s.c. at a dose of 6 mg/kg in a volume of 0.1-0.2 mL. Motor coordination tests were made at 3 hours after giving haloperidol, that is, 5 hours after administering the presumed protective drugs.
Motor coordination tests and rigidity were quantified according to three different parameters: (a) ability to walk the length of a horizontal rod, 80 cm-long; (b) ability to climb down, face down, a vertical rod, 80 cm-long; (c) duration of immobility in an unnatural sitting posture whereby the abdomen of the mouse is pressed against a “wall.” Full performance as in haloperidol-untreated mice is given the score of 4 in each test, or a total of 12 in all tests. Poor performance is given a score from 1 to 3.

[9] = test system: neonatal rat cerebellum cell cultures; details: for Percent Protection: after subtraction of solvent effect
Procedure: Procedures: cultures of mechanically dissociated neonatal rat cerebellum. […] The cerebella are then dissociated after 20-25 passages through a sterile 13 gauge, 10 cm long stainless steel needle attached to a 5 ml syringe with an inserted 45 μm pore size nylon sieve. The dissociated cells are centrifuged at 200 g for 5 minutes, the supernatant discarded and the cells resuspended in enriched medium. The cell viability is determined by the trypan blue exclusion test. […] After 4 days in culture, the media are replaced with media containing the desired test compounds. Experiments are done in duplicate and repeated 2 or 3 times. […] Nerve cell survival is evaluated by phase contrast microscopy and trypan blue staining after 24 h.
Values, expressed as the percent of untreated controls, represent the average of 2 experiments run in duplicate for culture experiments, and the mean±SEM of 4 animals for ischemia. The percent protection value is the effect of the test compound after subtraction of the solvent effect.

[10] = test system: crush-injured rat optic nerve; details: rats, 2 mg/kg i.p. immediately after optic nerve crush
From the text: At short terms, metabolic measurements were monitored in terms of the mitochondrial NADH/NAD ratio, which depends on the activity of the electron transport system, and thus indicate levels of energy production.
Monitoring of the intramitochondrial NADH redox state is based on the fact that NADH, unlike the oxidized form NAD^+, fluoresces when illuminated at […]. A flexible Y-shaped bundle of optic fibers (light guide) was used to transmit the light to and from the optic nerve. […] Changes in the reflected light were correlated with changes in tissue absorption caused by hemodynamic effects and with movements of the optic nerve secondary to alterations in arterial blood pressure and nerve volume.
Animal utilization was in accord with the ARVO Resolution on the use of animals in research. […] With the animal's head held in place by a head holder, a lateral canthotomy was performed under a binocular operating microscope and the conjuctiva was incised lateral to the cornea.

MCA-occluded Wistar rats [11] = test system: MCA-occluded Wistar rats; remark: listed apart in the source
Procedure: as §1
After coagulation, the MCA was severed with microscissors and divided to ensure complete occlusion. Following this, the temporalis muscle was sutured and laid over the craniectomy site. The skin was closed with a running 3-0 silk suture. A shad craniectomy operation was performed on a parallel group of rats, but without cauterization of the MCA. During the entire surgical operation (20-25 min) in either group, body temperature was maintained at 37 to 38° C. by means of a body-temperature regulator (Kyoristsu, Japan) consisting of a self-regulating heating pad connected to a rectal thermistor. […] The volume of brain tissue incurring damage following ischemia was determined.
1 mg/kg immediately after surgery.
0.5 mg/kg 2 hours after surgery
Then multislices T2-weighted images (3000/80) were acquired (5 contiguous slices, 3 mm thick).
The following MRI parameters were determined for each group of rats:
The use of contiguous slices allows the conversion-of area units into volume units by simply multiplying the area value by the slice thickness

[12] = pretreatment 1 h before MPTP 30 mg/kg s.c.

## C#CCN[C@H]1CCc2ccccc21 [(S)-PAI Mesylate]
[1]
  mice protected: three out of three
[2]
  effect on time to first focal seizure and onset of clonus (proconvulsive activity): reduces the time

## C#CCN[C@H]1CCc2ccccc21 [S(−)PAI]
[3]
  Stereotype Behavior Rating (lateral head movements in 1 minute): 94 ± 18
[4]; 15-day old anoxia-lesioned rats
  numbers of crossings of infrared beam grid over 15 minutes: 334 ± 196(5)
[4]; 20-day old anoxia-lesioned rats
  numbers of crossings of infrared beam grid over 15 minutes: 778 ± 232(6)
[5]; drug alone
  striatal DA: 174.0 ± 4.8 ng/mg protein
  striatal DOPAC: 7.5 ± 0.2 ng/mg protein
[5]; [12]
  striatal DA: 53.4 ± 6.9 ng/mg protein
  striatal DOPAC: 7.0 ± 0.6 ng/mg protein
[6]
  latency After Electroshock: 112 ± 112 s
  latency Before Electroshock: 48 ± 19 s

## C#CCN[C@@H]1CCc2ccccc21.CS(=O)(=O)O [(R)-PAI Mesylate, R-(+)-N-propargyl-1-aminoindan mesylate]
MCA-occluded Wistar rats [7]; n=5, 24 hrs after MCA-Occlusion, scale 0-13
  Neurological Score, MEAN + SD: 2.78 ± 1.3
MCA-occluded Wistar rats [7]; n=5 vs 6 untreated MCAO rats, mesylate
  reduction of neurological score: 54% and 53.7%
[8]
  peak activity score as % of saline control: 94%
[9]; 0.01 μM + NMDA
  Surviving Cells (percent of untreated controls): 12
  Percent Protection: 2
[9]; 1.00 μM + NMDA
  Surviving Cells (percent of untreated controls): 22
  Percent Protection: 12
[9]; 10.00 μM + NMDA
  Surviving Cells (percent of untreated controls): 37
[1]
  mice protected: one out of three
[10]
  effect on injury-induced reduction in energy production (NADH response to anoxia): blocked the injury-induced reduction in energy production
MCA-occluded Wistar rats [11]; Table 21, n=9, MRI T2 scan 48 h after MCA-O, 1.0, 0.5, 1.0 mg/kg ip at 0, 2, 24 hrs
  Infarct size, MEAN ± SD: 163.5 ± 43.9 mm^3
MCA-occluded Wistar rats [11]; Table 21, n=9 vs 10 untreated
  reduction of infarct size: [R](+)PAI Mesylate reduces infarct size by 40% significantly
MCA-occluded Wistar rats [11]; Table 22, n=5, MRI 48 hrs after MCA-Occlusion
  Infarct size, MEAN + SD: 172 ± 28 mm^3
MCA-occluded Wistar rats [11]; Table 22, n=5 vs 6 untreated MCAO rats, mesylate
  reduction of infarct size: 36% and 36.3%
MCA-occluded Wistar rats [11]; n=9 vs 10 untreated
  infarct size as % of that in untreated animals: about 60%
